Values quoted from earlier work, collected in PMC4494852, “Microwave-assisted preparation, structural characterization, lipophilicity, and anti-cancer assay of some hydroxycoumarin derivatives” (Monatshefte Fur Chemie, 2014).

How the values were obtained:
Conditions in all cases: cited from earlier work
[1] = system: Walker 256 carcinosarcoma; parameters: method as in doi:10.1021/jo00316a018
sarcoma 180 = system: sarcoma 180; parameters: method as in doi:10.1021/jo00316a018
P-388 lymphotic leukemia = system: P-388 lymphotic leukemia; parameters: method as in doi:10.1021/jo00316a018
Lewis lung carcinoma = system: Lewis lung carcinoma; parameters: method as in doi:10.1021/jo00316a018
leukemia RPMI-8226 = system: leukemia RPMI-8226; parameters: method as in PMID 21439691
[2] = system: non-small-cell lung cancer NCI-H522; parameters: method as in PMID 21439691
leukemia K-562 = system: leukemia K-562; parameters: method as in PMID 21439691
prostate cancer PC-3 = system: prostate cancer PC-3; parameters: method as in PMID 21439691
leukemia HL-60 (TB) = system: leukemia HL-60 (TB); parameters: method as in PMID 21439691

C/C(=C\COc1ccc2ccc(=O)oc2c1)C1=CC(=O)C(C)(C)O1 [Geiparvarin]
significant inhibitory activity: inhibitory activity [1] | inhibitory activity (sarcoma 180) | inhibitory activity (P-388 lymphotic leukemia) | inhibitory activity (Lewis lung carcinoma)

CC(=O)c1c(OCC#N)ccc2c(C)cc(=O)oc12 [8-Acetyl-7-(cyanomethoxy)-4-methylcoumarin]
inhibited the growth: growth inhibition (leukemia RPMI-8226) | growth inhibition [2] | growth inhibition (leukemia K-562) | growth inhibition (prostate cancer PC-3) | growth inhibition (leukemia HL-60 (TB))
